Patent US8076487B2, “Pyridone derivative and herbicide” (Kumiai Chemical Industry Co., Ltd., priority 2006, dated 2011)

Legend:
Assay type in all cases: in vivo
[1] = system: heartshape false pickerelweed (Monochoria vaginalis (Burm.f.) C.Presl); assay: Test Example 1: herbicidal effect by soil application to paddy field; details: paddy field soil application; active ingredient 1,000 g per 1 hectare; wettable powder added dropwise to water surface the day after sowing; examined on the 21st day after application
Procedure, shortened: (§1)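 Under greenhouse conditions, seeds sown on puddled paddy soil in 100 cm2 pots under 3 cm of standing water received the test compound; injury was assessed with a standard scoring scheme three weeks (day 21) after treatment.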

[2] = system: Japanese bulrush (Scirpus juncoides Roxb.); assay: as above; details: paddy field soil application; active ingredient 1,000 g per 1 hectare; wettable powder added dropwise to water surface the day after sowing; examined on the 21st day after application
Procedure, shortened: as §1

[3] = system: early watergrass (Echinochloa oryzicola Vasing); assay: as above; details: paddy field soil application; active ingredient 1,000 g per 1 hectare; wettable powder added dropwise to water surface the day after sowing; examined on the 21st day after application
Procedure, shortened: as §1

[4] = system: slender amaranth (Amaranthus viridis L.); assay: Test Example 2: herbicidal effect by soil application to upland field; details: soil surface spray, upland field soil, 1,000 g active ingredient per hectare, 21st day after application
Procedure, shortened: (§2)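 Using a small sprayer, we treat the soil surface of pots just after sowing and covering seeds. The aqueous wettable powder supplies 1,000 g a.i./ha in 1,000 L water/ha; after greenhouse growth, injury is scored on day 21 using a standard rating.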

[5] = system: green foxtail (Setaria viridis (L.) P. Beauv.); assay: as above; details: soil surface spray, upland field soil, 1,000 g active ingredient per hectare, 21st day after application
Procedure, shortened: as §2

[6] = system: velvetleaf (Abutilon theophrasti medicus); assay: as above; details: soil surface spray, upland field soil, 1,000 g active ingredient per hectare, 21st day after application
Procedure, shortened: as §2

[7] = system: barnyardgrass (Echinochloa crus-galli (L.) P. Beauv. var. crus-galli); assay: as above; details: soil surface spray, upland field soil, 1,000 g active ingredient per hectare, 21st day after application
Procedure, shortened: as §2

[8] = system: slender amaranth (Amaranthus viridis L.); assay: Test Example 3: herbicidal effect by application to upland field (foliage treatment); details: 14th day after application; for herbicidal effect, Slender Amaranth: foliage treatment, 1,000 g active ingredient per 1 hectare, greenhouse
Procedure, shortened: (§3)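 Foliar spray on two-week-old greenhouse weeds in field soil: wettable powder formulation diluted in water, applied at 1,000 L/ha to give 1,000 g a.i./ha. Damage rated by a fixed scoring standard on day 14 after application.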

[9] = system: green foxtail (Setaria viridis (L.) P. Beauv.); assay: as above; details: 14th day after application; for herbicidal effect, Green Foxtail: foliage treatment, 1,000 g active ingredient per 1 hectare, greenhouse
Procedure, shortened: as §3

[10] = system: velvetleaf (Abutilon theophrasti medicus); assay: as above; details: 14th day after application; for herbicidal effect, Velvetleaf: foliage treatment, 1,000 g active ingredient per 1 hectare, greenhouse
Procedure, shortened: as §3

[11] = system: barnyardgrass (Echinochloa crus-galli (L.) P. Beauv. var. crus-galli); assay: as above; details: 14th day after application; for herbicidal effect, Barnyardgrass: foliage treatment, 1,000 g active ingredient per 1 hectare, greenhouse
Procedure, shortened: as §3

[12] = foliage treatment, plants grown two weeks, 1,000 g active ingredient per hectare

Row | Compound | herbicidal effect, Monochoria vaginalis (Burm. f.) C. Presl [1] | herbicidal effect, Scirpus juncoides Roxb. [2] | herbicidal effect, Echinochloa oryzicola Vasing [3] | herbicidal effect (index), Slender Amaranth [4] | herbicidal effect (index), Green Foxtail [5] | herbicidal effect (index), Velvetleaf [6] | herbicidal effect (index), Barnyardgrass [7] | herbicidal effect, Slender Amaranth [8] | herbicidal effect, Green Foxtail [9] | herbicidal effect, Velvetleaf [10] | herbicidal effect, Barnyardgrass [11] | herbicidal effect (index), Slender Amaranth [8, 12] | herbicidal effect (index), Green Foxtail [9, 12] | herbicidal effect (index), Velvetleaf [10, 12] | herbicidal effect (index), Barnyardgrass [11, 12]
1 | Cn1ncc(C(=O)c2ccc(C(F)(F)F)n(-c3ccc(F)c(F)c3)c2=O)c1O [IV-85] | 5 (90% or more of herbicidal effect and crop phytotoxicity) | 5 (90% or more of herbicidal effect and crop phytotoxicity) | 5 (90% or more of herbicidal effect and crop phytotoxicity) | 5 (90% or more of herbicidal effect and crop phytotoxicity) | 5 (90% or more of herbicidal effect and crop phytotoxicity) | 5 (90% or more of herbicidal effect and crop phytotoxicity) | 5 (90% or more of herbicidal effect and crop phytotoxicity) | 5 (90% or more of herbicidal effect and crop phytotoxicity) | 5 (90% or more of herbicidal effect and crop phytotoxicity) | 5 (90% or more of herbicidal effect and crop phytotoxicity) | 5 (90% or more of herbicidal effect and crop phytotoxicity) |  |  |  | 
2 | CCn1ncc(C(=O)c2ccc(C(F)(F)F)n(CC3CC(C)=NO3)c2=O)c1O (stereo not drawn) [IV-107] | 5 (90% or more of herbicidal effect and crop phytotoxicity) | 5 (90% or more of herbicidal effect and crop phytotoxicity) | 5 (90% or more of herbicidal effect and crop phytotoxicity) | 5 (90% or more of herbicidal effect and crop phytotoxicity) | 5 (90% or more of herbicidal effect and crop phytotoxicity) | 5 (90% or more of herbicidal effect and crop phytotoxicity) | 5 (90% or more of herbicidal effect and crop phytotoxicity) | 5 (90% or more of herbicidal effect and crop phytotoxicity) | 5 (90% or more of herbicidal effect and crop phytotoxicity) | 5 (90% or more of herbicidal effect and crop phytotoxicity) | 5 (90% or more of herbicidal effect and crop phytotoxicity) |  |  |  | 
3 | O=C1CCCC(O)=C1C(=O)c1ccc(C(F)(F)F)n(CS(=O)(=O)C2CC2)c1=O [I-53] | 5 (90% or more of herbicidal effect and crop phytotoxicity) | 5 (90% or more of herbicidal effect and crop phytotoxicity) | 5 (90% or more of herbicidal effect and crop phytotoxicity) | 5 (90% or more of herbicidal effect and crop phytotoxicity) | 5 (90% or more of herbicidal effect and crop phytotoxicity) | 5 (90% or more of herbicidal effect and crop phytotoxicity) | 5 (90% or more of herbicidal effect and crop phytotoxicity) |  |  |  |  | 5 (90% or more of herbicidal effect and crop phytotoxicity) | 5 (90% or more of herbicidal effect and crop phytotoxicity) | 5 (90% or more of herbicidal effect and crop phytotoxicity) | 5 (90% or more of herbicidal effect and crop phytotoxicity)
4 | COCCNn1c(C(F)(F)F)ccc(C(=O)C2=C(O)CCCC2=O)c1=O [I-169] | 5 (90% or more of herbicidal effect and crop phytotoxicity) | 5 (90% or more of herbicidal effect and crop phytotoxicity) | 5 (90% or more of herbicidal effect and crop phytotoxicity) | 5 (90% or more of herbicidal effect and crop phytotoxicity) | 5 (90% or more of herbicidal effect and crop phytotoxicity) | 5 (90% or more of herbicidal effect and crop phytotoxicity) | 5 (90% or more of herbicidal effect and crop phytotoxicity) | 5 (90% or more of herbicidal effect and crop phytotoxicity) | 5 (90% or more of herbicidal effect and crop phytotoxicity) | 5 (90% or more of herbicidal effect and crop phytotoxicity) | 5 (90% or more of herbicidal effect and crop phytotoxicity) |  |  |  | 
5 | COCc1cc(-n2c(C(F)(F)F)ccc(C(=O)C3=C(O)CCCC3=O)c2=O)ccc1F [I-111] | 5 (90% or more of herbicidal effect and crop phytotoxicity) | 5 (90% or more of herbicidal effect and crop phytotoxicity) | 5 (90% or more of herbicidal effect and crop phytotoxicity) | 5 (90% or more of herbicidal effect and crop phytotoxicity) | 5 (90% or more of herbicidal effect and crop phytotoxicity) | 5 (90% or more of herbicidal effect and crop phytotoxicity) | 5 (90% or more of herbicidal effect and crop phytotoxicity) | 5 (90% or more of herbicidal effect and crop phytotoxicity) | 5 (90% or more of herbicidal effect and crop phytotoxicity) | 5 (90% or more of herbicidal effect and crop phytotoxicity) | 5 (90% or more of herbicidal effect and crop phytotoxicity) |  |  |  | 
6 | O=C1CCCC(O)=C1C(=O)c1ccc(C(F)(F)F)n(N2CCOCC2)c1=O [I-178] | 5 (90% or more of herbicidal effect and crop phytotoxicity) | 5 (90% or more of herbicidal effect and crop phytotoxicity) | 5 (90% or more of herbicidal effect and crop phytotoxicity) | 5 (90% or more of herbicidal effect and crop phytotoxicity) | 5 (90% or more of herbicidal effect and crop phytotoxicity) | 5 (90% or more of herbicidal effect and crop phytotoxicity) | 5 (90% or more of herbicidal effect and crop phytotoxicity) | 5 (90% or more of herbicidal effect and crop phytotoxicity) | 5 (90% or more of herbicidal effect and crop phytotoxicity) | 5 (90% or more of herbicidal effect and crop phytotoxicity) | 5 (90% or more of herbicidal effect and crop phytotoxicity) |  |  |  | 
